Structures can show the parent of a compound that is named as a salt.
Columns and labels:
BT-474 Tam1 [1] = assay: drug sensitivity score (DSS) (DSS (dimensionless)); higher = more sensitive; extreme values may be limits of the assay; settings: 4-OH-tamoxifen in medium 1 µM; 72 h
How it was run: (§1)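 After seeding into 384-well plates with library drugs at five concentrations spanning a 10 000-fold range, breast cancer cell lines and their resistant derivatives were incubated 72 h at 37 °C. Resistant lines received medium with 1 μM of the selecting drug. CellTiter-Glo signal was read on a PHERAstar and scaled to vehicle-only and positive controls. Drug sensitivity score, relative IC50 (the curve midpoint) and top-dose inhibition came from logistic fits run in the Breeze pipeline.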

BT-474 Tam2 [2] = assay: as above; settings: 4-OH-tamoxifen in medium 1 µM; 72 h
How it was run: as §1

BT-474 [3] = assay: as above; settings: 72 h
How it was run: as §1

MCF-7 Tam1 [4] = assay: as above; settings: 4-OH-tamoxifen in medium 1 µM; 72 h
How it was run: as §1

MCF-7 [5] = assay: as above; settings: 72 h
How it was run: as §1

T-47D Tam1 [6] = assay: as above; settings: 4-OH-tamoxifen in medium 1 µM; 72 h
How it was run: as §1

T-47D Tam2 [7] = assay: as above; settings: 4-OH-tamoxifen in medium 1 µM; 72 h
How it was run: as §1

T-47D [8] = assay: as above; settings: 72 h
How it was run: as §1

ZR-75-1 Tam1 [9] = assay: as above; settings: 4-OH-tamoxifen in medium 1 µM; 72 h
How it was run: as §1

ZR-75-1 Tam2 [10] = assay: as above; settings: 4-OH-tamoxifen in medium 1 µM; 72 h
How it was run: as §1

ZR-75-1 [11] = assay: as above; settings: 72 h
How it was run: as §1

BT-474 Tam1 [12] = assay: relative IC50 (midpoint of fitted logistic curve, plateau may be below 50% inhibition; CellTiter-Glo viability); higher = less potent; settings: 4-OH-tamoxifen in medium 1 µM; 72 h
How it was run: as §1

BT-474 Tam2 [13] = assay: as above; settings: 4-OH-tamoxifen in medium 1 µM; 72 h
How it was run: as §1

BT-474 [14] = assay: as above; settings: 72 h
How it was run: as §1

MCF-7 Tam1 [15] = assay: as above; settings: 4-OH-tamoxifen in medium 1 µM; 72 h
How it was run: as §1

MCF-7 [16] = assay: as above; settings: 72 h
How it was run: as §1

T-47D Tam1 [17] = assay: as above; settings: 4-OH-tamoxifen in medium 1 µM; 72 h
How it was run: as §1

T-47D Tam2 [18] = assay: as above; settings: 4-OH-tamoxifen in medium 1 µM; 72 h
How it was run: as §1

T-47D [19] = assay: as above; settings: 72 h
How it was run: as §1

ZR-75-1 Tam1 [20] = assay: as above; settings: 4-OH-tamoxifen in medium 1 µM; 72 h
How it was run: as §1

ZR-75-1 Tam2 [21] = assay: as above; settings: 4-OH-tamoxifen in medium 1 µM; 72 h
How it was run: as §1

ZR-75-1 [22] = assay: as above; settings: 72 h
How it was run: as §1

Structure (SMILES)	relative IC50 (BT-474 Tam1 [12])	relative IC50 (BT-474 Tam2 [13])	relative IC50 (BT-474 [14]; 4-OH-tamoxifen in medium 0 µM)	relative IC50 (BT-474 [14]; 4-OH-tamoxifen in medium 1 µM)	relative IC50 (MCF-7 Tam1 [15])	relative IC50 (MCF-7 [16]; 4-OH-tamoxifen in medium 0 µM)	relative IC50 (T-47D Tam1 [17])	relative IC50 (T-47D Tam2 [18])	relative IC50 (T-47D [19]; 4-OH-tamoxifen in medium 0 µM)	relative IC50 (T-47D [19]; 4-OH-tamoxifen in medium 1 µM)	relative IC50 (MCF-7 [16]; 4-OH-tamoxifen in medium 1 µM)	drug sensitivity score (BT-474 Tam1 [1])	drug sensitivity score (BT-474 Tam2 [2])	drug sensitivity score (BT-474 [3]; 4-OH-tamoxifen in medium 0 µM)	drug sensitivity score (BT-474 [3]; 4-OH-tamoxifen in medium 1 µM)	drug sensitivity score (MCF-7 Tam1 [4])	drug sensitivity score (MCF-7 [5]; 4-OH-tamoxifen in medium 0 µM)	drug sensitivity score (MCF-7 [5]; 4-OH-tamoxifen in medium 1 µM)	drug sensitivity score (T-47D Tam1 [6])	drug sensitivity score (T-47D Tam2 [7])	drug sensitivity score (T-47D [8]; 4-OH-tamoxifen in medium 0 µM)	drug sensitivity score (T-47D [8]; 4-OH-tamoxifen in medium 1 µM)	drug sensitivity score (ZR-75-1 Tam1 [9])	drug sensitivity score (ZR-75-1 Tam2 [10])	drug sensitivity score (ZR-75-1 [11]; 4-OH-tamoxifen in medium 0 µM)	drug sensitivity score (ZR-75-1 [11]; 4-OH-tamoxifen in medium 1 µM)	relative IC50 (ZR-75-1 Tam1 [20])	relative IC50 (ZR-75-1 Tam2 [21])	relative IC50 (ZR-75-1 [22]; 4-OH-tamoxifen in medium 0 µM)	relative IC50 (ZR-75-1 [22]; 4-OH-tamoxifen in medium 1 µM)
Nc1cccc2c1CN(C1CCC(=O)NC1=O)C2=O (stereo unspecified) [Lenalidomide]	> 10 µM	> 10 µM	> 10 µM	> 10 µM	> 10 µM	> 10 µM	> 10 µM	> 10 µM	> 10 µM	> 10 µM	–	0	0	0	0	0	0	1.39	0	0	0	0	0	0	0	0	> 10 µM	> 10 µM	> 10 µM	> 10 µM
c1ccc([C@H]2CN3CCSC3=N2)cc1 [Levamisole, (Tetramisole hydrochloride)]	> 10 µM	> 10 µM	> 10 µM	> 10 µM	> 10 µM	> 10 µM	> 10 µM	> 10 µM	> 10 µM	> 10 µM	> 10 µM	0	0	0	0	0	0	0	0	0	0	0	0	0	0	0	> 10 µM	> 10 µM	> 10 µM	> 10 µM
COc1c2occc2cc2ccc(=O)oc12 [Methoxsalen]	> 10 µM	> 10 µM	> 10 µM	> 10 µM	> 10 µM	> 10 µM	> 10 µM	> 10 µM	> 10 µM	> 10 µM	> 10 µM	0	0	0	0	0	0	0	0	0	0	0	0	0	0	0	> 10 µM	> 10 µM	> 10 µM	> 10 µM
C[C@H]1C[C@@H]2[C@H]([C@@H](O)C[C@@]3(C)[C@H]2CC[C@]3(O)C(=O)CO)[C@@]2(C)C=CC(=O)C=C12 [Methylprednisolone]	> 10 µM	> 10 µM	> 10 µM	> 10 µM	> 10 µM	> 10 µM	> 10 µM	> 10 µM	> 10 µM	> 10 µM	–	0	0	0	0	0	0	0.455	0	0	0	0	0	0	0	0	> 10 µM	> 10 µM	> 10 µM	> 10 µM
COc1nc(N)nc2c1ncn2[C@@H]1O[C@H](CO)[C@@H](O)[C@@H]1O [Nelarabine]	> 10 µM	> 10 µM	> 10 µM	> 10 µM	> 10 µM	–	> 10 µM	> 10 µM	> 10 µM	> 10 µM	> 10 µM	0	0	0	0	0	0.277	0	0	0	0	0	0	0	0.0337	0	> 10 µM	> 10 µM	–	> 10 µM

The next lines start with results.

relative IC50 (BT-474 Tam1 [12])	relative IC50 (BT-474 Tam2 [13])	relative IC50 (BT-474 [14]; 4-OH-tamoxifen in medium 0 µM)	relative IC50 (BT-474 [14]; 4-OH-tamoxifen in medium 1 µM)	relative IC50 (MCF-7 Tam1 [15])	relative IC50 (MCF-7 [16]; 4-OH-tamoxifen in medium 0 µM)	relative IC50 (T-47D Tam1 [17])	relative IC50 (T-47D Tam2 [18])	relative IC50 (T-47D [19]; 4-OH-tamoxifen in medium 0 µM)	relative IC50 (T-47D [19]; 4-OH-tamoxifen in medium 1 µM)	relative IC50 (MCF-7 [16]; 4-OH-tamoxifen in medium 1 µM)	Structure (SMILES)	drug sensitivity score (BT-474 Tam1 [1])	drug sensitivity score (BT-474 Tam2 [2])	drug sensitivity score (BT-474 [3]; 4-OH-tamoxifen in medium 0 µM)	drug sensitivity score (BT-474 [3]; 4-OH-tamoxifen in medium 1 µM)	drug sensitivity score (MCF-7 Tam1 [4])	drug sensitivity score (MCF-7 [5]; 4-OH-tamoxifen in medium 0 µM)	drug sensitivity score (MCF-7 [5]; 4-OH-tamoxifen in medium 1 µM)	drug sensitivity score (T-47D Tam1 [6])	drug sensitivity score (T-47D Tam2 [7])	drug sensitivity score (T-47D [8]; 4-OH-tamoxifen in medium 0 µM)	drug sensitivity score (T-47D [8]; 4-OH-tamoxifen in medium 1 µM)	drug sensitivity score (ZR-75-1 Tam1 [9])	drug sensitivity score (ZR-75-1 Tam2 [10])	drug sensitivity score (ZR-75-1 [11]; 4-OH-tamoxifen in medium 0 µM)	drug sensitivity score (ZR-75-1 [11]; 4-OH-tamoxifen in medium 1 µM)	relative IC50 (ZR-75-1 Tam1 [20])	relative IC50 (ZR-75-1 Tam2 [21])	relative IC50 (ZR-75-1 [22]; 4-OH-tamoxifen in medium 0 µM)	relative IC50 (ZR-75-1 [22]; 4-OH-tamoxifen in medium 1 µM)
> 1 µM	> 1 µM	> 1 µM	> 1 µM	> 1 µM	> 1 µM	> 1 µM	> 1 µM	> 1 µM	> 1 µM	> 1 µM	Cc1ccc(F)c(NC(=O)Nc2ccc(-c3cccc4[nH]nc(N)c34)cc2)c1 [Linifanib (ABT-869)]	0	0	0	0	0	0	0	0	0	0	0	0	0	0	0	> 1 µM	> 1 µM	> 1 µM	> 1 µM
> 1 µM	> 1 µM	> 1 µM	> 1 µM	> 1 µM	> 1 µM	> 1 µM	> 1 µM	> 1 µM	> 1 µM	> 1 µM	O=C(O)CC[C@H]1CC[C@@](c2cc(F)ccc2F)(S(=O)(=O)c2ccc(Cl)cc2)CC1 [MK-0752]	0	0	0	0	0	0	0	0	0	0	0	0	0	0	0	> 1 µM	> 1 µM	> 1 µM	> 1 µM
> 10 µM	> 10 µM	> 10 µM	> 10 µM	> 10 µM	> 10 µM	> 10 µM	> 10 µM	> 10 µM	> 10 µM	> 10 µM	Clc1ccc(C(c2ccccc2Cl)C(Cl)Cl)cc1 (stereo unspecified) [Mitotane]	0	0	0	0	0	0	0	0	0	0	0	0	0	0	0	> 10 µM	> 10 µM	> 10 µM	> 10 µM
